The test system of assay [1] is human endothelial cells of the umbilical vein. The experiment in a line: Proliferation of human umbilical vein endothelial cells, with or without FGFa. The assay is classed as cell-based. The procedure:
At confluence (5-7 days), the cells are detached by an EDTA-trypsin mixture.
48 hours latter, growth factor is added again. After 4 days of culture, the cells are detached by the EDTA-trypsin mixture and the cells are counted by means of a cell counter (Coulter Counter ® Coultronics). Each experimental curve (FIG. 14A-D) represents a typical experiment conducted in triplicate. Each experiment is repeated 2 to 3 times.

In assay [2] the test system is LE II cells (endothelial cells of mouse lung). Kind of assay: Tritiated thymidine incorporation in quiescent LE II cells, with or without anionic FGF. The assay is classed as cell-based. The procedure:
LE II cells (endothelial cells of mouse lung) are cultivated on plates containing 24 wells in the presence of 10% foetal calf serum until 3/4 of confluence is attained.
The cells are then maintained for 48 hours in only 0.2% serum and rendered quiescent.
The growth medium is then supplemented with either fibroblast growth factor (FGF) or the oligosaccharide fragments to be tested or both products simultaneously (FGF+product to be tested).
The culture is maintained for a further 24 hours and tritiated thymidine is added 4 hours before the end of the experiment.
The radioactivity incorporated is then counted; each measurement is made in triplicate.
On the technique in general: Dividing cells build labelled thymidine or BrdU into new DNA.

We go through two molecules from patent publication US5034520A, “Process for recovering heparinic oligosaccharides with an affinity for cell growth factors” (Sanofi, priority 1986, dated 1991).

With FGFa: acidic FGF (FGFa), the “ED 50 of FGFa (50% of maximal proliferation)” value in assay [1] (FGFa in the absence of oligosaccharides, 10% FCS) is on record as “about 7 ng/ml”. The “maximal increase of the number of cells” value in assay [1] (FGFa without oligosaccharides, versus 10% FCS alone) is recorded as 230%.

B1: anionic FGF: anionic FGF prepared from beef brain according to Lobb and Fett (protein, UniProt P03968 16-155, looked up)
Fibroblast growth factor 1: FNLPLGNYKKPKLLYCSNGGYFLRILPDGTVDGTKDRSDQHIQLQLCAESIGEVYIKSTETGQFLAMDTDGLLYGSQTPNEECLFLERLEENHYNTYISKKHAEKHWFVGLKKNGRSKLGPRTHFGQKAILFLPLPVSSD
On to B1, for which the “dose giving plateau of stimulation” value in assay [2] (anionic FGF alone (FIG. 10)) turned out to be 5 ng/mL. In addition, the “plateau of thymidine incorporation after stimulation” value in assay [2] (anionic FGF alone, 5 ng/ml (FIG. 10)) was 126,000 cpm.
